From ChEMBL document CHEMBL3638997, “5-alkynyl-pyrimidines” (2013)

Biological target: Phosphatidylinositol 4,5-bisphosphate 3-kinase catalytic subunit alpha isoform (Homo sapiens, UniProt P42336)
Assay: Filter-Binding-Assay: PI3Kalpha assay described herein provides IC50 values indicating the activity of the compounds inhibiting PI3 kinase alpha activity Inhibition of PI3 kinase is expected to be indicative of activity in treating conditions of excessive or anomalous cell proliferation, such as cancers. See also J. A. Engelman, Nature Reviews Cancer, 2009, 9, 550-562; A. Carnero, Expert Opin. …

Chain of Phosphatidylinositol 4,5-bisphosphate 3-kinase catalytic subunit alpha isoform (P42336 whole entry, canonical isoform): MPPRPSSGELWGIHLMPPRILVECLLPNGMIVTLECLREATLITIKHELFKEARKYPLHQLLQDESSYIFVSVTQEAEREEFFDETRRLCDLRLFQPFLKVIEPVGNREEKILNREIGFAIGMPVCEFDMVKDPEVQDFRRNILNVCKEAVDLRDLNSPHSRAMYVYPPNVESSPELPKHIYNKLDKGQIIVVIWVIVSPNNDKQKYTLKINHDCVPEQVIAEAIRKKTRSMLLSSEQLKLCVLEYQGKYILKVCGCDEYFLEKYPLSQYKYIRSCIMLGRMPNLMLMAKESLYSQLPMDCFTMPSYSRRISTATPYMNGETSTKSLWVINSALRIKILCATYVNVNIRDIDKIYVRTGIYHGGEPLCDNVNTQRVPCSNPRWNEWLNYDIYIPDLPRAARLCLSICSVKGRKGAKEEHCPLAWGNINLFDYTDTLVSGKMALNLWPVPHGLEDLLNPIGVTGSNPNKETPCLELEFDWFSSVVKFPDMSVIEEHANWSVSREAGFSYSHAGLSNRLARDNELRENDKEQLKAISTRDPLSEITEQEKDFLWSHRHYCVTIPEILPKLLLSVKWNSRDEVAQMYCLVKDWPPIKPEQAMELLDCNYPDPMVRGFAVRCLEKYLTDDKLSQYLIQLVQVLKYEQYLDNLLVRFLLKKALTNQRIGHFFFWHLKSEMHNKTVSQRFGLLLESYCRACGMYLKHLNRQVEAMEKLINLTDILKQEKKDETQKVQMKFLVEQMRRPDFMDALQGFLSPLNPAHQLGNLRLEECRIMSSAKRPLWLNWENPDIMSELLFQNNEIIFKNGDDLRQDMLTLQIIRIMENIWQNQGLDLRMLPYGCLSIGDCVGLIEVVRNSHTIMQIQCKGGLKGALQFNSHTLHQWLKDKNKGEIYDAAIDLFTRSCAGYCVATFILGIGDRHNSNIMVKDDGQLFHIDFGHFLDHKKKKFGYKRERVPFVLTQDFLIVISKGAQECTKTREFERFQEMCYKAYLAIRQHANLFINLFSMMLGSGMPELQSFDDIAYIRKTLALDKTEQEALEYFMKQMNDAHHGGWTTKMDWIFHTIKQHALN

IC50: 0.015 µM
Compound: CCc1ncnc(N2CCC(O)(CC)CC2)c1C#Cc1ccc(N)nc1
